Reference: patent US20240247021A1, “CRYSTAL FORMS OF KUDING SAPONIN A COMPOUND, PHARMACEUTICAL COMPOSITION AND USE THEREOF” (SHANGHAI KE PHARMACEUTICAL CO., LTD, priority 2021, published 2024)
Where two headings read alike, the source gives them in different places.

Legend:
[1] = Hygroscopicity test by dynamic vapor sorption (DVS); assay type: physicochemical; conditions: for Degree of hygroscopicity: criteria of Table 12
Protocol: Dynamic vapor sorption (DVS) is a test method for analyzing the moisture sorption performance of a sample and recording the moisture sorption isotherm, and it determines the stability of a compound by identifying its sorption capacity for moisture. Methods for performing dynamic vapor sorption analysis on the crystals are well known to those skilled in the art. In the present invention, the hygroscopicity of the crystal forms A, C, and J of Kudinoside A is determined by using a dynamic vapor sorption instrument, and the specific measurement conditions are shown in Table 7.
About 10 mg of each of the crystal forms A, C, and J obtained in Examples 1-3 was tested for its hygroscopicity using a dynamic vapor sorption (DVS) instrument (test conditions: a temperature of 25° C. and a relative humidity of 0%-80%), and the hygroscopicity of each crystal form was judged using the criteria shown in Table 12 below. For the steps and the judgment criteria of the hygroscopicity test, reference is made to the General Requirement 9103-Guidelines for Hygroscopicity in Pharmacopoeia of the People's Republic of China 2020 (Volume IV).

[2] = Thermogravimetric analysis (TGA); assay type: physicochemical; conditions: 10 K/min, nitrogen
Description: Thermogravimetric analysis, or TGA for short, refers to a thermal analysis method for measuring the relationship of the mass of a sample to be detected with the change of temperature or time at a programmed temperature, and it is used to study information related to the quality of the sample, such as thermal stability, components of intermediate products possibly generated, etc. It is often used in combination with other thermal analysis methods for comprehensive thermal analysis. Methods for performing thermogravimetric analysis on the crystals are well known to those skilled in the art. In the present invention, the crystal forms A, C, and J of Kudinoside A are determined by using a thermogravimetric analyzer, and the specific measurement conditions are shown in Table 6.

[3] = Competition experiment of crystal form A and crystal form J in water suspension; assay type: physicochemical; conditions: equal mixture of crystal forms A and J suspended in water, stirred at room temperature 3 days; XRPD of wet and dry sample
Protocol: Firstly, an initial mixing sample was prepared: samples of the crystal form A and the crystal form J of Kudinoside A with the equivalent quantity were uniformly mixed, and sampling was carried out for XRPD detection.
Water was added to the sample to form a suspension, which was stirred at room temperature and then centrifuged 3 days later, and sampling was carried out for XRPD detection (wet sample); after drying under vacuum at 30° C., the sample was subjected to XRPD detection (dry sample).

[4] = Conditions under which the crystal forms exist stably; assay type: physicochemical
[5] = DVS, 25° C., relative humidity 0%-80%
[6] = Accelerated test (40 ± 2° C., humidity 75% ± 5%), 0 month
[7] = Accelerated test (40 ± 2° C., humidity 75% ± 5%), 1 month
[8] = Accelerated test (40 ± 2° C., humidity 75% ± 5%), 3 month
[9] = Accelerated test (40 ± 2° C., humidity 75% ± 5%), 4 month
[10] = Accelerated test (40 ± 2° C., humidity 75% ± 5%), 5 month
[11] = Accelerated test (40 ± 2° C., humidity 75% ± 5%), 6 month
[12] = Long-term test 1 (25 ± 2° C., humidity 60% ± 5%), 0 month
[13] = Long-term test 1 (25 ± 2° C., humidity 60% ± 5%), 1 month
[14] = Long-term test 1 (25 ± 2° C., humidity 60% ± 5%), 3 month
[15] = Long-term test 1 (25 ± 2° C., humidity 60% ± 5%), 4 month
[16] = Long-term test 1 (25 ± 2° C., humidity 60% ± 5%), 6 month
[17] = Long-term test 1 (25 ± 2° C., humidity 60% ± 5%), 9 month
[18] = Long-term test 1 (25 ± 2° C., humidity 60% ± 5%), 12 month
[19] = Long-term test 1 (25 ± 2° C., humidity 60% ± 5%), 24 month
[20] = Long-term test 2 (5 ± 3° C.), 0 month
[21] = Long-term test 2 (5 ± 3° C.), 1 month
[22] = Long-term test 2 (5 ± 3° C.), 3 month
[23] = Long-term test 2 (5 ± 3° C.), 4 month
[24] = Long-term test 2 (5 ± 3° C.), 6 month
[25] = Long-term test 2 (5 ± 3° C.), 9 month
[26] = Long-term test 2 (5 ± 3° C.), 12 month
[27] = Long-term test 2 (5 ± 3° C.), 24 month

Question: Which results are given for `C[C@@H]1O[C@@H](O[C@H]2[C@H](O[C@H]3CC[C@]4(C)[C@H]5C[C@H](O)C6=C7[C@]8(CC[C@](C)(OC8=O)[C@@]7(C)O)CC[C@@]6(C)[C@]5(C)CC[C@H]4C3(C)C)OC[C@H](O)[C@@H]2O[C@@H]2O[C@H](CO)[C@@H](O)[C@H](O)[C@H]2O)[C@H](O)[C@H](O)[C@H]1O` [crystal form A, Kudinoside A]?
Answer: weight change when the relative humidity is in the range of 0%-80% ([1]; DVS graph (FIGS. 1d, 2d, 3d)): about 12%; hygroscopicity ([1]; DVS graph (FIGS. 1d, 2d, 3d), judgment criteria of Table 7): hygroscopic; Increase in mass (relative humidity: 0%-80%) [1, 5]: 12%; Degree of hygroscopicity [1, 5]: hygroscopic; Degree of hygroscopicity ([1]; DVS, 25° C., relative humidity 0%-80%, listed as A): Hygroscopic (The increase in mass is less than 15% but not less than 2%); Appearance [6]: White; Content of Kudinoside A [6]: 100.2 % of the labeled amount; Content of impurity F (Kudinoside D) [6]: 0.09%; Total content of impurities [6]: 0.09%; Appearance [7]: White; Content of Kudinoside A [7]: 101.7 % of the labeled amount; Content of impurity F (Kudinoside D) [7]: 0.17%; Total content of impurities [7]: 0.17%; Appearance [8]: White; Content of Kudinoside A [8]: 99.0 % of the labeled amount; Content of impurity F (Kudinoside D) [8]: 0.26%; Total content of impurities [8]: 0.43%; Appearance [9]: White; Content of Kudinoside A [9]: 98.0 % of the labeled amount; Content of impurity F (Kudinoside D) [9]: 0.29%; Total content of impurities [9]: 0.52%; Appearance [10]: White; Content of Kudinoside A [10]: 98.9 % of the labeled amount; Content of impurity F (Kudinoside D) [10]: 0.29%; Total content of impurities [10]: 0.60%; Appearance [11]: White; Content of Kudinoside A [11]: 98.4 % of the labeled amount; Content of impurity F (Kudinoside D) [11]: 0.29%; Total content of impurities [11]: 0.66%; Appearance [12]: White; Content of Kudinoside A [12]: 100.2 % of the labeled amount; Content of impurity F (Kudinoside D) [12]: 0.09%; Total content of impurities [12]: 0.09%; Appearance [13]: White; Content of Kudinoside A [13]: 101.4 % of the labeled amount; Content of impurity F (Kudinoside D) [13]: 0.09%; Total content of impurities [13]: 0.09%; Appearance [14]: White; Content of Kudinoside A [14]: 100.2 % of the labeled amount; Content of impurity F (Kudinoside D) [14]: 0.12%; Total content of impurities [14]: 0.12%; Appearance [15]: White; Content of Kudinoside A [15]: 99.2 % of the labeled amount; Content of impurity F (Kudinoside D) [15]: 0.13%; Total content of impurities [15]: 0.13%; Appearance [16]: White; Content of Kudinoside A [16]: 98.3 % of the labeled amount; Content of impurity F (Kudinoside D) [16]: 0.15%; Total content of impurities [16]: 0.15%; Appearance [17]: White; Content of Kudinoside A [17]: 98.8 % of the labeled amount; Content of impurity F (Kudinoside D) [17]: 0.19%; Total content of impurities [17]: 0.19%; Appearance [18]: White; Content of Kudinoside A [18]: 99.8 % of the labeled amount; Content of impurity F (Kudinoside D) [18]: 0.19%; Total content of impurities [18]: 0.19%; Appearance [19]: White; Content of Kudinoside A [19]: 100.2 % of the labeled amount; Content of impurity F (Kudinoside D) [19]: 0.21%; Total content of impurities [19]: 0.35%; Appearance [20]: White; Content of Kudinoside A [20]: 100.2 % of the labeled amount; Content of impurity F (Kudinoside D) [20]: 0.09%; Total content of impurities [20]: 0.09%; Appearance [21]: White; Content of Kudinoside A [21]: 101.8 % of the labeled amount; Content of impurity F (Kudinoside D) [21]: 0.08%; Total content of impurities [21]: 0.08%; Appearance [22]: White; Content of Kudinoside A [22]: 99.9 % of the labeled amount; Content of impurity F (Kudinoside D) [22]: 0.10%; Total content of impurities [22]: 0.10%; Appearance [23]: White; Content of Kudinoside A [23]: 99.8 % of the labeled amount; Content of impurity F (Kudinoside D) [23]: 0.08%; Total content of impurities [23]: 0.08%; Appearance [24]: White; Content of Kudinoside A [24]: 98.6 % of the labeled amount; Content of impurity F (Kudinoside D) [24]: 0.09%; Total content of impurities [24]: 0.09%; Appearance [25]: White; Content of Kudinoside A [25]: 99.2 % of the labeled amount; Content of impurity F (Kudinoside D) [25]: 0.09%; Total content of impurities [25]: 0.09%; Appearance [26]: White; Content of Kudinoside A [26]: 99.8 % of the labeled amount; Content of impurity F (Kudinoside D) [26]: 0.09%; Total content of impurities [26]: 0.09%; Appearance [27]: White; Content of Kudinoside A [27]: 101.3 % of the labeled amount; Content of impurity F (Kudinoside D) [27]: 0.08%; Total content of impurities [27]: 0.08%; decomposition temperature [2]: about 318 °C; crystal form conversion [3]: tends to convert to the crystal form J; conditions under which the crystal form exists stably [4]: can exist stably as a dry powder at room temperature
